The results in this text go back to ChEMBL document CHEMBL3616463, “Differential influence of 7 cations on 16 non-competitive NMDA receptor blockers” (Bioorg Med Chem Lett, 2015).

The experiment has as its target Glutamate NMDA receptor. The experiment is classed as cell membranes, Rattus norvegicus, Wistar, Brain, Membrane.
Description: Displacement of [3H]MK-801 from NMDA receptor in Wistar rat brain membranes by scintillation counting analysis
As for `NCCCCCCCCc1ccc(CCCCN)s1`, the IC50 was found to be 0.43 µM. The figure for `NCCOC(c1ccccc1)c1ccccc1` is 5.48 µM; for `N=C(N)c1ccc(N2CCCN(c3ccc(C(=N)N)cc3)CC2)cc1` it is 0.35 µM.

Molecule `C[C@@H](CN)C(c1cccc(F)c1)c1cccc(F)c1` displayed a concentration for half-maximal inhibition (IC50) of 0.11 µM. Against the preceding molecule, the IC50 is about 3.2-fold lower. The figure for `NCCCC12CCC(c3ccccc31)c1ccccc12` is 7.44 µM; for `C[C@](N)(Cc1ccccc1)c1ccccc1` it is 0.78 µM. The figure for `CN[C@@]1(c2ccccc2Cl)CCCCC1=O` is 2.12 µM; for `NCCCCCCCCCCCCN` it is 8.39 µM; for `NC(N)=NCCCCN=C(N)N` [ARCAINE] it is 6.39 µM. Then `CN(C)CCCN1c2ccccc2Sc2ccc(Cl)cc21` [CHLORPROMAZINE], with 21 µM; and `CN[C@]1(c2ccccc2Cl)CCCCC1=O` [ESKETAMINE], with 0.64 µM. Molecule `NCCCN1c2ccccc2Sc2ccc(Cl)cc21` [NOR2-CHLORPROMAZINE] gave an IC50 of 5.79 µM. Then `c1ccc(C2(N3CCCCC3)CCCCC2)cc1` [PHENCYCLIDINE], with 0.11 µM; and `COC(=O)[C@@H](N)Cc1c[nH]c2ccccc12` [TRYPTOPHAN METHYL ESTER], with 169 µM.

As a reminder, the IC50 is the concentration that gives 50% inhibition. Read a high IC50 as a need for much substance.
